Data from PubChem BioAssay (NCI).
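Following 48 hours of exposure in 96-well plates, responses at five concentrations were used to interpolate endpoints linearly. GI50 is the concentration that inhibits growth by half. At the TGI there is no net growth.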

Key:
Test in all cases: NCI tumour cell line growth inhibition, 48 h
T-47D breast = system: T-47D breast
NCI-H23 lung = system: NCI-H23 lung
M14 melanoma = system: M14 melanoma
NCI-H460 lung = system: NCI-H460 lung
CCRF-CEM leukemia = system: CCRF-CEM leukemia
OVCAR-4 ovarian = system: OVCAR-4 ovarian
NCI/ADR-RES ovarian = system: NCI/ADR-RES ovarian
OVCAR-8 ovarian = system: OVCAR-8 ovarian
HCT-116 colon = system: HCT-116 colon
HT29 colon = system: HT29 colon
SK-MEL-2 melanoma = system: SK-MEL-2 melanoma
BT-549 breast = system: BT-549 breast
SW-620 colon = system: SW-620 colon
DU-145 prostate = system: DU-145 prostate
UACC-62 melanoma = system: UACC-62 melanoma
TK-10 renal = system: TK-10 renal
HL-60(TB) leukemia = system: HL-60(TB) leukemia
MDA-MB-435 = system: MDA-MB-435
OVCAR-5 ovarian = system: OVCAR-5 ovarian
SF-268 CNS = system: SF-268 CNS
MDA-MB-231 breast = system: MDA-MB-231 breast
SN12C renal = system: SN12C renal
RPMI-8226 leukemia = system: RPMI-8226 leukemia
NCI-H226 lung = system: NCI-H226 lung
A498 renal = system: A498 renal
U251 CNS = system: U251 CNS
SNB-19 CNS = system: SNB-19 CNS
SK-MEL-28 melanoma = system: SK-MEL-28 melanoma
UO-31 renal = system: UO-31 renal
SK-OV-3 ovarian = system: SK-OV-3 ovarian
SK-MEL-5 melanoma = system: SK-MEL-5 melanoma
PC-3 prostate = system: PC-3 prostate
IGROV1 ovarian = system: IGROV1 ovarian
HOP-92 NSCLC = system: HOP-92 NSCLC
RXF 393 renal = system: RXF 393 renal
786-0 renal = system: 786-0 renal
HS 578T breast = system: HS 578T breast
HOP-62 NSCLC = system: HOP-62 NSCLC
SF-539 CNS = system: SF-539 CNS
LOX IMVI melanoma = system: LOX IMVI melanoma
MCF7 breast = system: MCF7 breast
A549 NSCLC = system: A549 NSCLC
HCC-2998 colon = system: HCC-2998 colon
SF-295 CNS = system: SF-295 CNS
ACHN renal = system: ACHN renal
EKVX NSCLC = system: EKVX NSCLC
K-562 leukemia = system: K-562 leukemia
UACC-257 melanoma = system: UACC-257 melanoma
SR leukemia = system: SR leukemia
COLO 205 colon = system: COLO 205 colon
HCT-15 colon = system: HCT-15 colon
NCI-H522 lung = system: NCI-H522 lung
SNB-75 CNS = system: SNB-75 CNS
KM12 colon = system: KM12 colon
MOLT-4 leukemia = system: MOLT-4 leukemia
MALME-3M melanoma = system: MALME-3M melanoma
OVCAR-3 ovarian = system: OVCAR-3 ovarian

COc1ccc(C2C(C#N)=C(N)Oc3c2sc2c(F)cccc32)cc1 (centres undefined)
GI50 (T-47D breast): 2.57 µM
TGI (T-47D breast): 25.9 µM
GI50 (NCI-H23 lung): 3.6 µM
TGI (NCI-H23 lung): 21.8 µM
GI50 (M14 melanoma): 1.34 µM
TGI (M14 melanoma): 4.54 µM
GI50 (NCI-H460 lung): 2.59 µM
TGI (NCI-H460 lung): 11.9 µM
GI50 (CCRF-CEM leukemia): 1.7 µM
TGI (CCRF-CEM leukemia): 12.5 µM
GI50 (OVCAR-4 ovarian): 8.95 µM
TGI (OVCAR-4 ovarian): 31 µM
GI50 (NCI/ADR-RES ovarian): 0.881 µM
TGI (NCI/ADR-RES ovarian): 5.96 µM
GI50 (OVCAR-8 ovarian): 3.11 µM
TGI (OVCAR-8 ovarian): 14.5 µM
GI50 (HCT-116 colon): 2.7 µM
TGI (HCT-116 colon): 12.1 µM
GI50 (HT29 colon): 3.23 µM
TGI (HT29 colon): 11.1 µM
GI50 (SK-MEL-2 melanoma): 3 µM
TGI (SK-MEL-2 melanoma): 18.6 µM
GI50 (BT-549 breast): 4.65 µM
TGI (BT-549 breast): 24 µM
GI50 (SW-620 colon): 1.82 µM
TGI (SW-620 colon): 15.6 µM
GI50 (DU-145 prostate): 2.96 µM
TGI (DU-145 prostate): 11.4 µM
GI50 (UACC-62 melanoma): 2.41 µM
TGI (UACC-62 melanoma): 18.9 µM
GI50 (TK-10 renal): 5.69 µM
TGI (TK-10 renal): 23.5 µM
GI50 (HL-60(TB) leukemia): 1.75 µM
TGI (HL-60(TB) leukemia): 6.5 µM
GI50 (MDA-MB-435): 0.315 µM
TGI (MDA-MB-435): 1.4 µM
GI50 (OVCAR-5 ovarian): 8.53 µM
TGI (OVCAR-5 ovarian): 27.6 µM
GI50 (SF-268 CNS): 3.95 µM
TGI (SF-268 CNS): 19.6 µM
GI50 (MDA-MB-231 breast): 3.77 µM
TGI (MDA-MB-231 breast): 20.3 µM
GI50 (SN12C renal): 3.94 µM
TGI (SN12C renal): 16.5 µM
GI50 (RPMI-8226 leukemia): 2.66 µM
TGI (RPMI-8226 leukemia): 12.5 µM
GI50 (NCI-H226 lung): 14 µM
TGI (NCI-H226 lung): 32.6 µM
GI50 (A498 renal): 2.1 µM
TGI (A498 renal): 15.6 µM
GI50 (U251 CNS): 2.74 µM
TGI (U251 CNS): 11.8 µM
GI50 (SNB-19 CNS): 2.99 µM
TGI (SNB-19 CNS): 16.8 µM
GI50 (SK-MEL-28 melanoma): 8.25 µM
TGI (SK-MEL-28 melanoma): 23.2 µM
GI50 (UO-31 renal): 4.66 µM
TGI (UO-31 renal): 17.7 µM
GI50 (SK-OV-3 ovarian): 4.35 µM
TGI (SK-OV-3 ovarian): 36.7 µM
GI50 (SK-MEL-5 melanoma): 3.93 µM
TGI (SK-MEL-5 melanoma): 16.3 µM
GI50 (PC-3 prostate): 2.36 µM
TGI (PC-3 prostate): 11.7 µM
GI50 (IGROV1 ovarian): 2.9 µM
TGI (IGROV1 ovarian): 19.5 µM
GI50 (HOP-92 NSCLC): 4.32 µM
TGI (HOP-92 NSCLC): 21.2 µM
GI50 (RXF 393 renal): 1.81 µM
TGI (RXF 393 renal): 5.77 µM
GI50 (786-0 renal): 3.34 µM
TGI (786-0 renal): 13 µM
GI50 (HS 578T breast): 2.81 µM
TGI (HS 578T breast): 27 µM
GI50 (HOP-62 NSCLC): 1.75 µM
TGI (HOP-62 NSCLC): 15.9 µM
GI50 (SF-539 CNS): 2.13 µM
TGI (SF-539 CNS): 6.24 µM
GI50 (LOX IMVI melanoma): 2.4 µM
TGI (LOX IMVI melanoma): 12.4 µM
GI50 (MCF7 breast): 0.711 µM
TGI (MCF7 breast): 13.6 µM
GI50 (A549 NSCLC): 3.12 µM
TGI (A549 NSCLC): 22.3 µM
GI50 (HCC-2998 colon): 3.04 µM
TGI (HCC-2998 colon): 14 µM
GI50 (SF-295 CNS): 2.1 µM
TGI (SF-295 CNS): 11.5 µM
GI50 (ACHN renal): 6.08 µM
TGI (ACHN renal): 21.4 µM
GI50 (EKVX NSCLC): 4.7 µM
TGI (EKVX NSCLC): 22.5 µM
GI50 (K-562 leukemia): 0.493 µM
TGI (K-562 leukemia): 18.2 µM
GI50 (UACC-257 melanoma): 14.6 µM
TGI (UACC-257 melanoma): 88.8 µM
GI50 (SR leukemia): 0.706 µM
TGI (SR leukemia): 14.2 µM
GI50 (COLO 205 colon): 2.62 µM
TGI (COLO 205 colon): 8.18 µM
GI50 (HCT-15 colon): 1.73 µM
TGI (HCT-15 colon): 12.4 µM
GI50 (NCI-H522 lung): 0.799 µM
TGI (NCI-H522 lung): 6.35 µM
GI50 (SNB-75 CNS): 2.42 µM
TGI (SNB-75 CNS): 14.5 µM
GI50 (KM12 colon): 1.62 µM
TGI (KM12 colon): 17.5 µM
GI50 (MOLT-4 leukemia): 2.62 µM
TGI (MOLT-4 leukemia): 14 µM
GI50 (MALME-3M melanoma): 11.6 µM
TGI (MALME-3M melanoma): 26.3 µM
GI50 (OVCAR-3 ovarian): 1.38 µM
TGI (OVCAR-3 ovarian): 4.94 µM
